Assay results from article PMC10394814, “Discovery and evaluation of active compounds from Xuanfei Baidu formula against COVID-19 via SARS-CoV-2 M^pro” (Chinese Medicine, 2023).

Columns and labels:
Omicron BA.2.3 variant = experiment: Antiviral activity assay (CPE) in Vero E6 cells, Omicron BA.2.3; format: cell-based, SARS-CoV-2
Omicron BA.1.1 variant = experiment: Antiviral activity assay (CPE) in Vero E6 cells, Omicron BA.1.1; format: cell-based, SARS-CoV-2

Cn1cnc(Cn2c(=O)[nH]/c(=N\c3cc4cn(C)nc4cc3Cl)n(Cc3cc(F)c(F)cc3F)c2=O)n1 [S-217622, reference compound]
EC50 (Omicron BA.2.3 variant): 235 nM | EC50 (Omicron BA.1.1 variant): 120 nM
